The record followed here is paper PMC4567410 (Virology, 2015).

Like-named read-outs stand apart in the source and are kept apart here.

A word on the IC50: it is the concentration at which inhibition is half-maximal. High values mean lower potency, low ones higher potency.

The subject of series [1] is A3G. Format: cell-based, human. The conditions noted are these: for effect on A3G protein levels: absence of redoxal treatment.
Series [2] concerns HIV-1NL4-3. The experiment in a line: HIV-1NL4-3 replication in H9. Format: cell-based. The settings on record: H9 cells expressing A3G, 62.5 and 125 nM.
The subject of the next series is HIV-1Ba-L. The experiment in a line: HIV-1 Ba-L replication in PBMCs. Format: cell-based. The settings on record: Human immunodeficiency virus 1, PBMC, 168 h.
The subject of series [3] is HIV-1NL4-3. Description: HIV-1NL4-3 replication in SupT1. Format: cell-based. The conditions noted are these: SupT1 T cells lacking A3G, 62.5 and 125 nM.
Another series concerns H9 cells. The experiment in a line: Cytotoxicity in H9 T cells. The settings on record: concentrations greater than 125 nM.
In another series the test system is SupT1 T cells. Description: Cytotoxicity in SupT1 T cells. The settings on record: concentrations greater than 125 nM.
In a further series the target is Vif-CBFβ interaction (Human immunodeficiency virus type 1 group M subtype B, UniProt P12504). Format: cell-based. The settings on record: unpublished preliminary co-immunoprecipitation experiments.
Vif-CBFβ interaction, sequence (P12504 whole entry): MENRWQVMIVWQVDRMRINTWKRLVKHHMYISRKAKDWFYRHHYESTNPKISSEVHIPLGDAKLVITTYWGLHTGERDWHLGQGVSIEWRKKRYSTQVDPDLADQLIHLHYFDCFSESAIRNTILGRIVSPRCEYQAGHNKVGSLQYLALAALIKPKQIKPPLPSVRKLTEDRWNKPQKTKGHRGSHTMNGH
The target of a further series is Vif-Cul5 interaction (Human immunodeficiency virus type 1 group M subtype B, UniProt P12504). The experiment in a line: Co-immunoprecipitation of Vif and Cul5 from 293T cells. Format: cell-based. The settings on record: 1250 nM, 40 h.
Vif-Cul5 interaction, sequence (P12504 whole entry): as above
For series [4], the system named is VSV-G pseudotyped NL4-3GFPΔEnv viruses. Format: cell-based, HIV-1.
For a further series, the system named is HIV-1 89BZ167. The experiment in a line: HIV-1 89BZ167 replication in PBMCs. Format: cell-based. The settings on record: HIV-1 isolate 89BZ167 in PBMCs, 7 days, RT assay.
Series [5] relates to Vif. Description: Vif protein stability in transfected 293T cells, CHX time course. Type of series: cell-based, HIV-1. The settings on record: 1250 nM 36 h, then CHX.
Series [6] concerns VSV-G pseudotyped NL4-3GFPΔEnv viruses. Format: cell-based, HIV-1. This is another data set of the same source.
Series [7] concerns A3G. The conditions noted are these: infected CEM cells, 1250 nM, 6 days post infection.
In series [8] the test system is HIV-1NL4-3. The experiment in a line: HIV-1NL4-3 spreading infection in CEM-SS cells. Format: cell-based. The settings on record: CEM-SS cells (very low A3G); 312.5, 625, 1250 nM.
The subject of the next series is HIV-1 91US001. Description: HIV-1 91US001 replication in PBMCs. Type of series: cell-based. The settings on record: HIV-1 isolate 91US001 in PBMCs, 7 days, RT assay.
Series [9] relates to Vif. Description: Western blot of Vif in HIV-1 infected CEM cell lysates. The conditions noted are these: infected CEM cells, 1250 nM. (In general: In western blotting, separated proteins are transferred to a membrane and probed.)
Series [10] has as its system HIV-1NL4-3. The experiment in a line: HIV-1NL4-3 spreading infection in CEM cells. The settings on record: CEM cells (high A3G); 312.5, 625, 1250 nM; 3, 6, 9 days. Format: cell-based.

With `O=C(O)c1cc(=O)[nH]c(=O)[nH]1` [orotate], the “effect on A3G protein levels” value in the series on A3G [1] is “no significant effect”.
Same read-out and setting: to `O=c1ccn([C@@H]2O[C@H](CO)[C@@H](O)[C@H]2O)c(=O)[nH]1` [uridine] belongs “no significant effect”.
Consider `COC(=O)c1ccc(O)c2nc3c(C=O)c(O)cc(O)c3nc12` [lomofungin], for which the antiviral activity result was “strong antiviral activity” in the series on HIV-1NL4-3 [2] and “not in SupT1 T cells” in the series on HIV-1NL4-3 [3]. This molecule also came in with an IC50 with HIV-1Ba-L of 70 nM. Besides, the cytotoxicity result with H9 cells and with SupT1 T cells was “significant cytotoxicity” in each case.
Take `COc1cc(-c2ccc(Nc3ccccc3C(=O)O)c(OC)c2)ccc1Nc1ccccc1C(=O)O` [redoxal]: on Vif-CBFβ interaction, the “effect on Vif-CBFβ interaction” value is reported as “did not disrupt”. Further, the “effect on Vif-Cul5 interaction” value at Vif-Cul5 interaction is “no effect”. Further, the decrease in infectivity entry in series [4] was “approximately 50%”. For the same molecule, the values for the IC50 with HIV-1 89BZ167 and in the series with HIV-1 91US001 were 590 nM and 1740 nM, respectively. In addition, the “effect on Vif protein stability” value with Vif [5] is on record as “no significant effect”. Also, the A3G protein levels result is listed as “increased” with A3G [1] and “modest increase” with A3G [7]. In addition, the “steady-state levels of A3G protein in CHX time course” value in the series with A3G [1] (293T cells with A3G-3xHA and pNL4-3GFPΔEnv, 1250 nM 36 h, then CHX 4 h) is given as “stabilized”. Also, in the series with A3G [1] (virus producer 293T cells expressing HIV-1 Vif, 1250 nM), the “increase of A3G protein levels” value was “approximately 50%”. Also, the virus production result in [6] is given as “inhibited virus production”. The “inhibition of viral replication” value with HIV-1NL4-3 [8] is given as “not CEM-SS cells”; in the series with HIV-1NL4-3 [10], “inhibited viral replication in a dose-dependent manner”. For the same molecule, the Vif protein levels result with Vif [9] is reported as “reduced Vif protein levels”.
